Assay: Acid dissociation constant, pKa of the compound

Question: For CCc1cc(C(N)=S)ccn1 [ETHIONAMIDE], which pKa is on record?
Answer: 11.9
